Assays:
Format in all cases: physicochemical
[1] = Static storage stability of crystalline dihydrate and anhydrous forms (XRPD, DSC, KF once weekly for four weeks)
Description: The stability of crystalline dihydrate and anhydrous forms of the compound represented by Formula (I) at varying relative humidity (RH) and temperature was investigated.
For example, the stability of crystalline dihydrate and anhydrous forms of the compound represented by Formula (I), as prepared according to Example 1 and Example 2, respectively, was studied under other conditions by placing aliquots of each form in static storage at conditions of 40° C./75% RH, 25° C./97% RH, 40° C./0% RH and 25° C./0% RH and analyzing the aliquots once weekly for four weeks using XRPD, DSC, and KF.

[2] = Hydration of the crystalline anhydrous form in low water activity solvents; settings: water activity 0.1, Ambient, XRPD
Description: The hydration of the crystalline anhydrous form was studied using aqueous solvent systems with low water activity of 0.1. Slurries of the crystalline anhydrous form in the respective solvent were agitated for 6 days at room temperature. Aliquots of isolated materials were analyzed after 24, 48, and 144 hours of agitation. Table 12 summarizes the experiment conditions and isolated crystalline forms, as determined by XRPD.

[3] = Hydration experiment, slurry of crystalline anhydrous form in deionized water; settings: successive 4-hour heat-cool cycles between 40° C. and room temperature for 72 hours
Description: In a hydration experiment, a slurry of the crystalline anhydrous form of the compound represented by Formula (I) and deionized water was subjected to successive 4-hour heat-cool cycles between 40° C. and room temperature for 72 hours.

[4] = static storage 40° C./0% RH, Week 1, dihydrate
[5] = static storage 25° C./0% RH, Week 4, listed as crystalline dihydrate form (having average crystal sizes of about 1 mm), dihydrate
[6] = static storage 40° C./0% RH, Week 4, listed as crystalline dihydrate form (having average crystal sizes of about 1 mm), dihydrate
[7] = static storage 25° C./0% RH, Week 1
[8] = static storage 25° C./0% RH, Week 2
[9] = static storage 25° C./0% RH, Week 3
[10] = static storage 25° C./0% RH, Week 4
[11] = static storage 25° C./97% RH, Week 1
[12] = static storage 25° C./97% RH, Week 2
[13] = static storage 25° C./97% RH, Week 3
[14] = static storage 25° C./97% RH, Week 4
[15] = static storage 40° C./0% RH, Week 1
[16] = static storage 40° C./0% RH, Week 2
[17] = static storage 40° C./0% RH, Week 3
[18] = static storage 40° C./0% RH, Week 4
[19] = static storage 40° C./75% RH, Week 1
[20] = static storage 40° C./75% RH, Week 2
[21] = static storage 40° C./75% RH, Week 3
[22] = static storage 40° C./75% RH, Week 4

Structure (SMILES): Cc1nc(-c2cnc(NC(C)C)n(C)c2=O)ccc1Oc1ccnc(-c2cnn(C)c2)c1 [ground crystalline dihydrate form, 2-(isopropylamino)-3-methyl-5-(6-methyl-5-((2-(1-methyl-1H-pyrazol-4-yl)pyridin-4-yl)oxy)pyridin-2-yl)pyrimidin-4 (3H)-one dihydrate]
- XRPD [1, 4]: Pattern 4 and the crystalline anhydrous form

Structure (SMILES): Cc1nc(-c2cnc(NC(C)C)n(C)c2=O)ccc1Oc1ccnc(-c2cnn(C)c2)c1 [Dihydrate form of the compound represented by Formula (I) (h] [2-(isopropylamino)-3-methyl-5-(6-methyl-5-((2-(1-methyl-1H-pyrazol-4-yl)pyridin-4-yl)oxy)pyridin-2-yl)pyrimidin-4 (3H)-one dihydrate]
- XRPD ([1]; static storage 25° C./0% RH, Week 1, dihydrate): Dihydrate
- KF (%) ([1]; static storage 25° C./0% RH, Week 1, dihydrate, dihydrate crystals about 10-50 µm): 7.5%
- XRPD ([1]; static storage 25° C./0% RH, Week 2, dihydrate): Dihydrate
- KF (%) ([1]; static storage 25° C./0% RH, Week 2, dihydrate, dihydrate crystals about 10-50 µm): 7.7%
- XRPD ([1]; static storage 25° C./0% RH, Week 3, dihydrate): Dihydrate
- KF (%) ([1]; static storage 25° C./0% RH, Week 3, dihydrate, dihydrate crystals about 10-50 µm): 8.1%
- XRPD ([1]; static storage 25° C./0% RH, Week 4, dihydrate): Dihydrate
- KF (%) ([1]; static storage 25° C./0% RH, Week 4, dihydrate, dihydrate crystals about 10-50 µm): 7.9%
- KF (%) [1, 5]: 5.8%
- XRPD [1, 5]: partially converted to the crystalline anhydrous form
- XRPD ([1]; static storage 25° C./97% RH, Week 1, dihydrate): Dihydrate
- KF (%) ([1]; static storage 25° C./97% RH, Week 1, dihydrate, dihydrate crystals about 10-50 µm): 7.6%
- XRPD ([1]; static storage 25° C./97% RH, Week 2, dihydrate): Dihydrate
- KF (%) ([1]; static storage 25° C./97% RH, Week 2, dihydrate, dihydrate crystals about 10-50 µm): 7.5%
- XRPD ([1]; static storage 25° C./97% RH, Week 3, dihydrate): Dihydrate
- KF (%) ([1]; static storage 25° C./97% RH, Week 3, dihydrate, dihydrate crystals about 10-50 µm): 7.9%
- XRPD ([1]; static storage 25° C./97% RH, Week 4, dihydrate): Dihydrate
- KF (%) ([1]; static storage 25° C./97% RH, Week 4, dihydrate, dihydrate crystals about 10-50 µm): 7.9%
- XRPD ([1]; static storage 25° C./97% RH, Week 4, listed as crystalline dihydrate form (having average crystal sizes of about 1 mm), dihydrate): remained stable and unchanged
- XRPD [1, 4]: Pattern 4
- KF (%) ([1]; static storage 40° C./0% RH, Week 1, dihydrate, dihydrate crystals about 10-50 µm): 7.5%
- XRPD ([1]; static storage 40° C./0% RH, Week 1, listed as crystalline dihydrate form (having crystal sizes in the range of about 10-50 μm , dihydrate)): Pattern 4
- XRPD ([1]; static storage 40° C./0% RH, Week 2, dihydrate): Pattern 4
- KF (%) ([1]; static storage 40° C./0% RH, Week 2, dihydrate, dihydrate crystals about 10-50 µm): 7.4%
- XRPD ([1]; static storage 40° C./0% RH, Week 2, listed as crystalline dihydrate form (having crystal sizes in the range of about 10-50 μm , dihydrate)): Pattern 4
- XRPD ([1]; static storage 40° C./0% RH, Week 3, dihydrate): Anhydrous
- KF (%) ([1]; static storage 40° C./0% RH, Week 3, dihydrate, dihydrate crystals about 10-50 µm): 7.0%
- XRPD ([1]; static storage 40° C./0% RH, Week 3, listed as crystalline dihydrate form (having crystal sizes in the range of about 10-50 μm , dihydrate)): Pattern 4 and peaks at 9.9° and 10.6°
- KF (%) ([1]; static storage 40° C./0% RH, Week 4, dihydrate, dihydrate crystals about 10-50 µm): 3.4%
- KF (%) [1, 6]: 0.2%
- XRPD [1, 6]: partially converted to the crystalline anhydrous form
- XRPD ([1]; static storage 40° C./0% RH, Week 4, listed as crystalline dihydrate form (having crystal sizes in the range of about 10-50 μm , dihydrate)): Pattern 4 and peaks at 9.9° and 10.6°
- XRPD ([1]; static storage 40° C./75% RH, Week 1, dihydrate): Dihydrate
- KF (%) ([1]; static storage 40° C./75% RH, Week 1, dihydrate, dihydrate crystals about 10-50 µm): 7.5%
- XRPD ([1]; static storage 40° C./75% RH, Week 2, dihydrate): Dihydrate
- KF (%) ([1]; static storage 40° C./75% RH, Week 2, dihydrate, dihydrate crystals about 10-50 µm): 7.9%
- XRPD ([1]; static storage 40° C./75% RH, Week 3, dihydrate): Dihydrate
- KF (%) ([1]; static storage 40° C./75% RH, Week 3, dihydrate, dihydrate crystals about 10-50 µm): 8.0%
- XRPD ([1]; static storage 40° C./75% RH, Week 4, dihydrate): Dihydrate
- KF (%) ([1]; static storage 40° C./75% RH, Week 4, dihydrate, dihydrate crystals about 10-50 µm): 7.9%
- XRPD ([1]; static storage 40° C./75% RH, Week 4, listed as crystalline dihydrate form (having average crystal sizes of about 1 mm), dihydrate): remained stable and unchanged

Structure (SMILES): Cc1nc(-c2cnc(NC(C)C)n(C)c2=O)ccc1Oc1ccnc(-c2cnn(C)c2)c1 [2-(isopropylamino)-3-methyl-5-(6-methyl-5-((2-(1-methyl-1H-pyrazol-4-yl)pyridin-4-yl)oxy)pyridin-2-yl)pyrimidin-4 (3H)-one]
- stability under all storage conditions ([1]; 40° C./75% RH, 25° C./97% RH, 40° C./0% RH and 25° C./0% RH, after 4 weeks): remained stable
- KF (%) [1, 7]: 0.1%
- XRPD [1, 7]: Anhydrous
- KF (%) [1, 8]: 0.1%
- XRPD [1, 8]: Anhydrous
- KF (%) [1, 9]: 0.0%
- XRPD [1, 9]: Anhydrous
- KF (%) [1, 10]: 0.2%
- XRPD [1, 10]: Anhydrous
- KF (%) [1, 11]: 0.3%
- XRPD [1, 11]: Anhydrous
- KF (%) [1, 12]: 0.3%
- XRPD [1, 12]: Anhydrous
- KF (%) [1, 13]: 0.2%
- XRPD [1, 13]: Anhydrous
- KF (%) [1, 14]: 0.4%
- XRPD [1, 14]: Anhydrous
- KF (%) [1, 15]: 0.1%
- XRPD [1, 15]: Anhydrous
- KF (%) [1, 16]: 0.0%
- XRPD [1, 16]: Anhydrous
- KF (%) [1, 17]: 0.0%
- XRPD [1, 17]: Anhydrous
- KF (%) [1, 18]: 0.2%
- XRPD [1, 18]: Anhydrous
- KF (%) [1, 19]: 0.3%
- XRPD [1, 19]: Anhydrous
- KF (%) [1, 20]: 0.2%
- XRPD [1, 20]: Anhydrous
- KF (%) [1, 21]: 0.1%
- XRPD [1, 21]: Anhydrous
- KF (%) [1, 22]: 0.3%
- XRPD [1, 22]: Anhydrous
- Observed Forms 24 h ([2]; slurry in Acetone/water (99:1)): Anhydrous
- Observed Forms 144 h ([2]; slurry in Acetone/water (99:1)): Anhydrous
- Observed Forms 24 h ([2]; slurry in MEK/water (99:1)): Anhydrous
- Observed Forms 144 h ([2]; slurry in MEK/water (99:1)): Dihydrate
- isolated solid identified by XRPD [3]: crystalline dihydrate form
